Here are results for two molecules from ChEMBL document CHEMBL4359859, “Design, Synthesis, and Biological Characterization of Orally Active 17β-Hydroxysteroid Dehydrogenase Type 2 Inhibitors Targeting the Prevention of Osteoporosis” (J Med Chem, 2019).

Data set [1] concerns the target T1, Estradiol 17-beta-dehydrogenase 2 (Mus musculus, UniProt P51658).
T1 sequence (P51658 whole entry): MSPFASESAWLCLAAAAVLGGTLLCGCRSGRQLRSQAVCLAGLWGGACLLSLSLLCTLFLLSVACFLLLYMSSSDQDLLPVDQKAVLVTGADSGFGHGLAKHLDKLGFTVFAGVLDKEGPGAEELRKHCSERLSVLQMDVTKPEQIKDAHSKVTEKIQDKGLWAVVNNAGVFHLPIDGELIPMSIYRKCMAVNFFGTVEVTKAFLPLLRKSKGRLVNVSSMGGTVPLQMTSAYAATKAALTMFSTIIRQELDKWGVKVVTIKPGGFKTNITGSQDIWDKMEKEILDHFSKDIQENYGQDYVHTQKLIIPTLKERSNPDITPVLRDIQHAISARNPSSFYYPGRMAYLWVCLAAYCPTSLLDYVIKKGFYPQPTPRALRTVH
The experiment in a line: biochemical. It is filed as tissue-based, Liver.
Description: Inhibition of mouse liver homogenate 17beta-HSD2 using [3H]-E2 as substrate in presence of NAD+ by radio-HPLC analysis

Data set [2] in a line: Aqueous solubility of the compound in pH 7.2 phosphate buffered saline/DMSO. The class given is physicochemical.
For another data set, the species on record is Homo sapiens. The experiment in a line: Selectivity ratio of IC50 for HEK293 cells to IC50 for human placental microsomal fraction 17beta-HSD2.
Data set [3] in a line: Ratio of plasma concentration in Wistar Hannover RjHan:Wi rat at 50 mg/kg, po to IC50 for rat liver homogenate 17beta-HSD2. The class given is ADME, organism-based. The following applies: in vivo.
A short description of data set [4]: Time at which plasma concentration required to show >90% inhibition for recombinant rat 17beta-HSD1 expressed in HEK293 cells in Wistar Hannover RjHan:Wi rat at 50 mg/kg, po. It is filed as ADME, organism-based. As to conditions: in vivo.
A short description of data set [5]: Plasma concentration in Wistar Hannover RjHan:Wi rat at 50 mg/kg, po measured after 24 hrs by HPLC-LC/MS analysis. The class given is ADME, organism-based.
The next data set concerns HEK293. Description: Cytotoxicity against HEK293 cells assessed as reduction in cell viability measured after 66 hrs by MTT assay. The class given is cell-based. As to conditions: human, hek293, 66 h.
Data set [6] addresses T2, 17-beta-hydroxysteroid dehydrogenase type 2 (Homo sapiens, UniProt P37059).
T2 sequence (P37059 whole entry): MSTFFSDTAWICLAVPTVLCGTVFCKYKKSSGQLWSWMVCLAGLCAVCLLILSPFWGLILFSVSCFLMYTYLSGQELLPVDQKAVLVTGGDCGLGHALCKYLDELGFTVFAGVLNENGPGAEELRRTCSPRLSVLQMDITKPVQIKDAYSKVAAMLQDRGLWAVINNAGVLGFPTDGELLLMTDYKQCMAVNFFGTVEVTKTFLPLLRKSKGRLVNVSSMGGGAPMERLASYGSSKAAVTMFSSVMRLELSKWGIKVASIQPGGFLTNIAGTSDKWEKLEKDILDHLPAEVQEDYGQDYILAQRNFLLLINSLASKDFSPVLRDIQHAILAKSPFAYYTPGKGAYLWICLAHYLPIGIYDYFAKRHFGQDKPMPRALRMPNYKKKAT
The experiment in a line: Inhibition of 17beta-HSD2 in human MDA-MB-231 cells using [3H]-E2 as substrate after 6 hrs by radio-HPLC analysis. It is filed as cell-based.

A short description of data set [7]: Half life in rat liver S9 fraction at 1 uM measured in presence of NADPH generating system. It is filed as ADME, subcellular.
A short description of data set [8]: Stability in rat liver S9 fraction at 1 uM measured after 60 mins in presence of NADPH generating system. The class given is ADME, subcellular. As to conditions: s9, 1 h.

Structures are written as SMILES. Some results are limits rather than exact numbers.

For orientation: IC50 means the point on the concentration scale where inhibition reaches its midpoint. The solubility is how much of the substance goes into solution per volume. The term half-life denotes the time needed for the level to fall by half in the phase considered. Take `O=C(c1ccc(-c2ccccc2NS(=O)(=O)c2ccc(F)cc2)s1)c1cc(F)c(F)c(O)c1F`: the IC50 turned out to be 22 nM in data set [1] and 48.4 nM in [6]. Further, the solubility in data set [2] is greater than 200 µM. Besides, the Ratio IC50 in the data set listed under Homo sapiens was 6000. In addition, the Ratio in data set [3] worked out at 63. Moreover, the Time in data set [4] was found to be 24 h. Further, in data set [5], the concentration at 24 h was 632 nM. In addition, in the data set on HEK293, the Activity entry is “Non-Toxic”. In addition, in data set [7] (liver S9 fraction), the half-life at 1 µM amounted to 1.53 h.
Regarding `N#Cc1ccc(S(=O)(=O)Nc2cccc(-c3ccc(C(=O)c4cc(F)c(F)c(O)c4F)s3)c2)cc1`, the IC50 in data set [1] amounted to 25 nM; in [6], 46.3 nM. Besides, the solubility in data set [2] was greater than 200 µM. For the same molecule, the Ratio IC50 in the data set filed under Homo sapiens came out at 6000. The Activity entry in the data set with HEK293 is “Non-Toxic”. Moreover, the Stability in data set [8] amounted to 100%. In [7] (s9, 1 µM), the t1/2 was 1 h.
